Source: US20070160527A1, “Use of n-acetyl-d-aminoglycosamine in treatment of local lesions or systematic symptoms related to autoimmune reactions” (priority 2003, published 2007)

Assays:
B16 tumor cells [1] = assay: Cytological test of regulating micro-heterology variation; assay type: cell-based; settings: final concentration 1 g/100 ml, incomplete 1640 medium, continued culture more than 48 hours; control cells could not proliferate
Description: Conventional incomplete 1640 culture media were used for cell culture, and B16 tumor cells (commericially obtained from the tumor cell library of Shanghai Institute of Cytobiology) were inoculated on said media. After continue culture for more than 48 hours, the micro-heterology variation of cells and the control effects of N-acetyl-D-glucosamine thereon were observed under a condition where metabolic wastes affected the growth environment. […] The control cells cultured without N-acetyl-D-glucosamine could not proliferate on the same culture media under same conditions.

B16 tumor cells [2] = assay: Animal test of regulating micro-heterology variation (B16 tumor cells inoculated on hind legs); assay type: in vivo, rats; settings: 7 days, 3 times per day; for control of micro-heterology variation compared with the control group: rats inoculated with B16 tumor cells, intra-peritoneal, 1 ml
Excerpt: In control group without the administration of the compound of formula (1), many proliferative corpuscles appeared in at least 40 among 50 rats within 1-3 days after the tumor cells were inoculated; many immature cells appeared within 3-5 days; and visible solid tumors finally appeared within about 10 days.

Proteus Mirabilis = assay: Promoting wave test (bio-wave model); assay type: cell-based; settings: final concentration 0.5% in LB plate, 37° C., 9 hours, compared with control sample
Excerpt: • 1. […] (+). […] Experimental results and evaluation:

[3] = in vivo
Excerpt: The toxicological test of the compound of formula (I) includes: • 1. Acute toxicity test: including tests of oral administration, intravenous injection administration, and maximum limit amount for administration; • 2. Ames test; • 3. Micronucleus test of mouse bone marrow cell; • 4. Abnormality test of mouse sperm; • 5. Aberration test of mouse testis chromosome; • 6. Chronic lethal test; • 7. Sub-chronic toxicity (feed for 90 days) test; • 8. Traditional deformity-inducing test.

[4] = Treatment of a patient with systemic lupus erythematosus; assay type: in vivo, human; settings: one patient, capsules 100 mg, 3 times per day, 7 days
Description: Patient who had definite systemic lupus erythematosus, was administered with capsules of the compound of formula (1) for consecutive 7 days, 3 times per day, and 100 mg every time, during the period of hospitalization.

[5] = Treatment of a patient with hyperthyroidism; assay type: in vivo, human; settings: one patient, capsules 100 mg, 3 times per day, 7 days
Description: Patient was administered with capsules of the compound of formula (1) for consecutive 7 days, 3 times per day, and 100 mg every time, during the period of treating diarrhea.

| Compound | cell proliferation under a condition where metabolic wastes affected the growth environment (B16 tumor cells [1]) | control of micro-heterology variation compared with the control group (B16 tumor cells [2]) | bio-wave pattern of bacterial growth (promoting wave function) (Proteus Mirabilis) | dosage at which the acute toxicosis reaction had not appeared [3] | number of rats in which solid tumor did not appear (B16 tumor cells [2]; 50 rats, 5% aqueous solution intra-peritoneally, 1 ml every time) | patient's symptom [4] | therapeutical effect on hyperthyroidism (confirmed by T3 and T4 in serum) [5] |
| --- | --- | --- | --- | --- | --- | --- | --- |
| CC(=O)N[C@H]1C(O)O[C@H](CO)[C@@H](O)[C@@H]1O.Cl (stereo partly drawn) [N-acetyl-D-glucosamine hydrochloride] | cells could proliferate continuously | exhibited function of controlling micro-heterology variation |  |  |  |  |  |
| CC(=O)N[C@@H]1[C@@H](O)[C@H](O)[C@@H](CO)O[C@H]1O [compound of formula (I), N-acetyl-D-glucosamine] | cell number stably increased with the culture time | could control the micro-heterology variation | finer wave mode | more than 2 g/kg | 45 | remitted in some extent | better effect of treating hyperthyroidism |
